From US10870652B2, “Compounds and methods for modulating bruton's tyrosine kinase” (CORVUS PHARMACEUTICALS, INC., priority 2016, dated 2020)

Key:
Type in all cases: biochemical
ITK = molecular target: T1, ITK (Homo sapiens, UniProt Q08881); assay: ITK IC50 kinase inhibition assay
T1 sequence (Q08881 1-620): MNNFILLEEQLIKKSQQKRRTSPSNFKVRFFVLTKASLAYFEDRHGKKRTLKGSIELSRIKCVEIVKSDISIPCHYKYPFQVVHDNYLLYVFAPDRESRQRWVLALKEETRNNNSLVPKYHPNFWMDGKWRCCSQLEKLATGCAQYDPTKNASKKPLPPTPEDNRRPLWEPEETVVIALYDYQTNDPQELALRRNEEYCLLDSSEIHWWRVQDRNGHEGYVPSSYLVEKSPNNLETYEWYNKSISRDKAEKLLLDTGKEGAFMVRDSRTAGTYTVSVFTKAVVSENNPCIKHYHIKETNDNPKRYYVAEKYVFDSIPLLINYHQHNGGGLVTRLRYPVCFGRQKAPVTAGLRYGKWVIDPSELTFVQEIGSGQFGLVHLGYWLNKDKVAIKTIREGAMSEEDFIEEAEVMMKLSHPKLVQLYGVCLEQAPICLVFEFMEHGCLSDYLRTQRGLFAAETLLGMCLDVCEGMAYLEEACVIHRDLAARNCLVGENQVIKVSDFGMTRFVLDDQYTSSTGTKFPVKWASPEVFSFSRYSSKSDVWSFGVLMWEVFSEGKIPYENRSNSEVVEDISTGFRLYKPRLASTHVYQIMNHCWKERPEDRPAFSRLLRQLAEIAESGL

BTK = BTK (Homo sapiens, UniProt Q06187); assay: BTK IC50 kinase inhibition assay
Chain of BTK (Q06187 whole entry): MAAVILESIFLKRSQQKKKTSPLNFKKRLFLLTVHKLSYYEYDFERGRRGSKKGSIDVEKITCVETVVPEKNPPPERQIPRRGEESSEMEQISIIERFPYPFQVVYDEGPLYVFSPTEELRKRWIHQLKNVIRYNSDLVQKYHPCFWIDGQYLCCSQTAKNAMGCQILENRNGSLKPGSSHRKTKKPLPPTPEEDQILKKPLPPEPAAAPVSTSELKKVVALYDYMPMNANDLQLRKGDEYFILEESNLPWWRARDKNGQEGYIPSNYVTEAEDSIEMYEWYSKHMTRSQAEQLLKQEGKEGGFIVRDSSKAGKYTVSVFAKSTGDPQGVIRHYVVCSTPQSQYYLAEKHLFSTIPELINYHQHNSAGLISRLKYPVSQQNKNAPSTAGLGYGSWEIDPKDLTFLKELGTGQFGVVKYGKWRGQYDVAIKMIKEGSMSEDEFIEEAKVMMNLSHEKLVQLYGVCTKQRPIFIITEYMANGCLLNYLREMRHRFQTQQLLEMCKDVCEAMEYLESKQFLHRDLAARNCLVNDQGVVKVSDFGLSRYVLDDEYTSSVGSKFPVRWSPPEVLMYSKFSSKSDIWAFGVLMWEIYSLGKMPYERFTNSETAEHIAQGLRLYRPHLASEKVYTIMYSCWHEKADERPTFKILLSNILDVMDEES

JAK3 = molecular target: T2, JAK3 (Homo sapiens, UniProt P52333); assay: JAK3 IC50 kinase inhibition assay
T2 sequence (P52333 1-1124): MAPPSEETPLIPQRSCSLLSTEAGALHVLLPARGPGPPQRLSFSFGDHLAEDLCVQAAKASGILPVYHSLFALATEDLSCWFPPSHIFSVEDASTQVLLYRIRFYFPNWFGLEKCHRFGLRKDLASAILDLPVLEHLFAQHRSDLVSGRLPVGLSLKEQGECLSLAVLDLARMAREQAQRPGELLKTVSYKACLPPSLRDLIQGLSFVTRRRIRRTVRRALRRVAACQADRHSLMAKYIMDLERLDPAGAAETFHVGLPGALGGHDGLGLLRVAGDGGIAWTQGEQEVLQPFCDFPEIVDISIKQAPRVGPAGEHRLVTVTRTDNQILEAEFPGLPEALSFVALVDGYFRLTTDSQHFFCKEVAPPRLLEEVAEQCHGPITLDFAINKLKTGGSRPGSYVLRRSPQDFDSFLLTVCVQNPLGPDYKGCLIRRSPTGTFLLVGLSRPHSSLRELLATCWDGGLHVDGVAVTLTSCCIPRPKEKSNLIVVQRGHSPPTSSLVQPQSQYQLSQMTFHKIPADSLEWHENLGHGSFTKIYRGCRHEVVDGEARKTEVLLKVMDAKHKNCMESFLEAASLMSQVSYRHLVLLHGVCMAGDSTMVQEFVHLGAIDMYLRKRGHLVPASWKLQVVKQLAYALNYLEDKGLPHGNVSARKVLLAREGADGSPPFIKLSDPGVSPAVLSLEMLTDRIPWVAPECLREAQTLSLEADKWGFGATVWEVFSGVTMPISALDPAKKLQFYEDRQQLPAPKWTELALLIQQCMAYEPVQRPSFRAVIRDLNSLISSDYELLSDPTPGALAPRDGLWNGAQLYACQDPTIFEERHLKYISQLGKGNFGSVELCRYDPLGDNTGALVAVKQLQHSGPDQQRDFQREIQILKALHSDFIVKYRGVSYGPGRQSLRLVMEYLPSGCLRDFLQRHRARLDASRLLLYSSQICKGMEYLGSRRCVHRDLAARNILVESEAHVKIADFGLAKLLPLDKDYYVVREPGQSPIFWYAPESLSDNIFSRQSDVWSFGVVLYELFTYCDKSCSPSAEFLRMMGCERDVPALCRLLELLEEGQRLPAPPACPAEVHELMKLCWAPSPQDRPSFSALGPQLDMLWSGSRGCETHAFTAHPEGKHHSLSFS

TXK = molecular target: T3, TXK (Homo sapiens, UniProt P42681); assay: TXK IC50 kinase inhibition assay
T3 sequence (P42681 1-527): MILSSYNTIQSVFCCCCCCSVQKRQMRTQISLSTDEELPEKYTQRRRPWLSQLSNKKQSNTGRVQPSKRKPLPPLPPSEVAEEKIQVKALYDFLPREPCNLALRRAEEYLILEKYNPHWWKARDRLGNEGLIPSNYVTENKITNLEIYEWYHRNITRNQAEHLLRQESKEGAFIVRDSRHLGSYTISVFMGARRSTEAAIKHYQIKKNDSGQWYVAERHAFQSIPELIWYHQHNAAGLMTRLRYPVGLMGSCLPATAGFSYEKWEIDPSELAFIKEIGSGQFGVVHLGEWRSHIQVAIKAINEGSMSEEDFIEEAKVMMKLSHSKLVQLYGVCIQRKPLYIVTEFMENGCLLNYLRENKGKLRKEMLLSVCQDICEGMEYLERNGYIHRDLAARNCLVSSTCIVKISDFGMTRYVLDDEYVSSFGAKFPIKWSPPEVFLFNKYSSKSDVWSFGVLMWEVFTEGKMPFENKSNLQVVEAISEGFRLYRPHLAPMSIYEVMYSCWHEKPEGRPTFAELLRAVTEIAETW

IC50 (ITK) [nM]	IC50 (BTK) [nM]	IC50 (JAK3) [nM]	IC50 (TXK) [nM]	Structure (SMILES)
> 500	100 to 500	> 500	> 500	C=CC(=O)NCCn1nc(-c2ccc(Oc3ccccc3)cc2)c2cncnc21 [Compound A42, N-(2-(3-(4-phenoxyphenyl)-1H-pyrazolo[3,4-d]pyrimidin-1-yl)ethyl)acrylamide]
> 500	> 500	> 500	> 500	CC#CC(=O)N[C@H]1CC[C@H](n2nc(-c3ccc(Oc4ccccc4)cc3)c3cncnc32)CC1 [Compound A70, N-((1r,4r)-4-(3-(4-phenoxyphenyl)-1H-pyrazolo[3,4-d]pyrimidin-1-yl)cyclohexyl)but-2-ynamide]
> 500	< 100	> 500	100 to 500	C=CC(=O)N1CC[C@H](n2nc(-c3ccc(Oc4ccccc4)cc3)c3cncnc32)C1 [Compound A12, (S)-1-(3-(3-(4-phenoxyphenyl)-1H-pyrazolo[3,4-d]pyrimidin-1-yl)pyrrolidin-1-yl)prop-2-en-1-one]
> 500	100 to 500	> 500	> 500	CC#CC(=O)N1CC[C@@H]1Cn1nc(-c2ccc(Oc3ccccc3)cc2)c2cncnc21 [Compound A67, (R)-1-(2-((3-(4-phenoxyphenyl)-1H-pyrazolo[3,4-d]pyrimidin-1-yl)methyl)azetidin-1-yl)but-2-yn-1-one]
> 500	< 100	> 500	> 500	C=CC(=O)N1CCC(Cn2nc(-c3ccc(Oc4ccccc4)cc3)c3cncnc32)CC1 [Compound A34, 1-(4-((3-(4-phenoxyphenyl)-1H-pyrazolo[3,4-d]pyrimidin-1-yl)methyl)piperidin-1-yl)prop-2-en-1-one]
> 500	100 to 500	> 500	100 to 500	C=CC(=O)N1CCC(n2nc(-c3ccc(Oc4ccccc4)cc3)c3cncnc32)CC1 [Compound A36, 1-(4-(3-(4-phenoxyphenyl)-1H-pyrazolo[3,4-d]pyrimidin-1-yl)piperidin-1-yl)prop-2-en-1-one]
> 500	100 to 500	> 500	100 to 500	C=C(F)C(=O)N1CCC[C@@H](n2nc(-c3ccc(Oc4ccccc4)cc3)c3cncnc32)C1 [Compound A62, (R)-2-fluoro-1-(3-(3-(4-phenoxyphenyl)-1H-pyrazolo[3,4-d]pyrimidin-1-yl)piperidin-1-yl)prop-2-en-1-one]
> 500	< 100	> 500	> 500	CC#CC(=O)N1CCC[C@H]1Cn1nc(-c2ccc(Oc3ccccc3)cc2F)c2cncnc21 [Compound A20, (S)-1-(2-((3-(2-fluoro-4-phenoxyphenyl)-1H-pyrazolo[3,4-d]pyrimidin-1-yl)methyl)pyrrolidin-1-yl)but-2-yn-1-one]
> 500	< 100	> 500	100 to 500	C=CC(=O)N1CCC[C@@H]1Cn1nc(-c2ccc(Oc3ccccc3)cc2)c2cncnc21 [Compound A7, (R)-1-(2-((3-(4-phenoxyphenyl)-1H-pyrazolo[3,4-d]pyrimidin-1-yl)methyl)pyrrolidin-1-yl)prop-2-en-1-one]
> 500	> 500	> 500	> 500	C=CC(=O)N[C@H]1CC[C@H](n2nc(-c3ccc(Oc4ccccc4)cc3)c3cncnc32)CC1 [Compound A56, N-((1r,4r)-4-(3-(4-phenoxyphenyl)-1H-pyrazolo[3,4-d]pyrimidin-1-yl)cyclohexyl)acrylamide]
> 500	< 100	> 500	< 100	O=C(C#CCN1CCCCC1)N1CC2(CC(n3nc(-c4ccc(Oc5ccccc5)cc4)c4cncnc43)C2)C1 [Compound A77, 1-(6-(3-(4-Phenoxyphenyl)-1H-pyrazolo[3,4-d]pyrimidin-1-yl)-2-azaspiro[3.3]heptan-2-yl)-4-(piperidin-1-yl)but-2-yn-1-one]
> 500	> 500	> 500	> 500	C=CC(=O)N1CCC2(CC1)CC(n1nc(-c3ccc(Oc4ccccc4)cc3)c3cncnc31)C2 [Compound A54, 1-(2-(3-(4-phenoxyphenyl)-1H-pyrazolo[3,4-d]pyrimidin-1-yl)-7-azaspiro[3.5]nonan-7-yl)prop-2-en-1-one]
> 500	< 100	> 500	< 100	CC#CC(=O)N1CC2(CC(n3nc(-c4ccc(Oc5ccccc5)cc4)c4cncnc43)C2)C1 [Compound A60, 1-(6-(3-(4-phenoxyphenyl)-1H-pyrazolo[3,4-d]pyrimidin-1-yl)-2-azaspiro[3.3]heptan-2-yl)but-2-yn-1-one]
> 500	< 100	> 500	< 100	C=CC(=O)N1CC[C@@H](n2nc(-c3ccc(Oc4ccccc4)cc3)c3cncc(C#N)c32)C1 [Compound A73, (R)-1-(1-acryloylpyrrolidin-3-yl)-3-(4-phenoxyphenyl)-1H-pyrazolo[4,3-c]pyridine-7-carbonitrile]
> 500	< 100	> 500	< 100	C=CC(=O)N1CCC[C@@H](n2nc(-c3ccc(Oc4ccccc4)cc3C)c3cncnc32)C1 [Compound A4, (R)-1-(3-(3-(2-methyl-4-phenoxyphenyl)-1H-pyrazolo[3,4-d]pyrimidin-1-yl)piperidin-1-yl)prop-2-en-1-one]
> 500	< 100	> 500	100 to 500	CC#CC(=O)N1CC[C@H](Cn2nc(-c3ccc(Oc4ccccc4)cc3)c3cncnc32)C1 [Compound A64, (S)-1-(3-((3-(4-phenoxyphenyl)-1H-pyrazolo[3,4-d]pyrimidin-1-yl)methyl)pyrrolidin-1-yl)but-2-yn-1-one]
> 500	< 100	> 500	100 to 500	C=CC(=O)N1CC[C@H](Cn2nc(-c3ccc(Oc4ccccc4)cc3)c3cncnc32)C1 [Compound A15, (S)-1-(3-((3-(4-phenoxyphenyl)-1H-pyrazolo[3,4-d]pyrimidin-1-yl)methyl)pyrrolidin-1-yl)prop-2-en-1-one]
> 500	< 100	> 500	100 to 500	C=CC(=O)N[C@@H](C)Cn1nc(-c2ccc(Oc3ccccc3)cc2)c2cncnc21 [Compound A43, (S)—N-(1-(3-(4-phenoxyphenyl)-1H-pyrazolo[3,4-d]pyrimidin-1-yl)propan-2-yl)acrylamide]
